Laboratory results taken from ChEMBL document CHEMBL5543096 (J Med Chem, 2024).
Calls of active or inactive are those of the source. The rule behind the calls is not given here.

Key:
Mus musculus [1] = test: Antidepressant activity in Reserpine-induced depressive C57BL/6J mouse model assessed as decrease in immobility time at 0.3 mg/kg,ip administration measured after 30 mins by tail suspension test; type: functional, organism-based
Mus musculus [2] = test: Antidepressant activity in Reserpine-induced depressive C57BL/6J mouse model assessed as decrease in immobility time at 0.3 mg/kg,ip administration measured after 7 days by tail suspension test; type: functional, organism-based; details: time 7.0 day
Mus musculus [3] = test: Antidepressant activity in Reserpine-induced depressive C57BL/6J mouse model assessed as decrease in immobility time at 0.1 to 0.3 mg/kg,ip administration measured after 30 mins by tail suspension test; type: functional, organism-based; details: dose 0.1-0.3 mg/kg
Mus musculus [4] = test: Antidepressant activity in Reserpine-induced depressive C57BL/6J mouse model assessed as decrease in immobility time at 0.1 to 1 mg/kg,ip administration measured after 7 days by tail suspension test; type: functional, organism-based; details: dose 0.1-1 mg/kg, time 7.0 day
Mus musculus [5] = test: Antidepressant activity in chronic restraint stress-induced depressive C57BL/6J mouse model assessed as increase in hippocampal BDNF mRNA expression at 0.3 mg/kg,ip administration measured after 8 hrs by qRT-PCR analysis; type: functional, organism-based
[6] = Toxicity in chronic restraint stress-induced depressive C57BL/6J mouse model assessed as decrease in percentage of spontaneous alternation at 2 mg/kg,ip administration by Y-maze test; type: organism-based; details: in vivo
Mus musculus [7] = test: Antidepressant activity in Reserpine-induced depressive C57BL/6J mouse model assessed as decrease in immobility time at 0.3 mg/kg,ip administration measured for 1 to 3 days by tail suspension test; type: functional, organism-based; details: time 1-3 day
Mus musculus [8] = test: Antidepressant activity in Reserpine-induced depressive C57BL/6J mouse model assessed as decrease in immobility time at 0.3 mg/kg,ip administration measured after 5 days by tail suspension test; type: functional, organism-based; details: time 5.0 day
[9] = Toxicity in chronic restraint stress-induced depressive C57BL/6J mouse model assessed as decrease in percentage of spontaneous alternation at 1 mg/kg,ip administration by Y-maze test; type: organism-based; details: in vivo

SMILES | Activity (Mus musculus [1]) | Activity (Mus musculus [2]) | also measured
CN1[C@@H]2CC[C@H]1C[C@@H](OC(=O)C(F)(CO)c1ccccc1)C2 (some centres not stated) | inactive | inactive | –
CN1[C@@H]2C[C@@H](OC(=O)C(F)(CN=[N+]=[N-])Cc3ccccc3)C[C@H]1[C@@H]1O[C@@H]12 (some centres not stated) | inactive | inactive | –
C=CCC(F)(CO)C(=O)O[C@@H]1C[C@@H]2[C@H]3O[C@H]3[C@H](C1)N2C (some centres not stated) | inactive | inactive | –
CN1[C@@H]2C[C@@H](OC(=O)C(F)(CO)CCc3ccccc3)C[C@H]1[C@@H]1O[C@@H]12 (some centres not stated) | inactive | inactive | –
Cc1ccc(S(=O)(=O)OCC(F)(C(=O)O[C@@H]2C[C@@H]3[C@H]4O[C@H]4[C@H](C2)N3C)c2ccccc2)cc1 (some centres not stated) | inactive | inactive | –
CN1[C@@H]2C[C@@H](OC(=O)C(F)(CO)c3ccccc3)C[C@H]1[C@@H]1O[C@@H]12 (some centres not stated) | Active | Active | –
CN1[C@@H]2C[C@@H](OC(=O)[C@](F)(CO)c3ccccc3)C[C@H]1[C@@H]1O[C@@H]12 | – | – | Activity (Mus musculus [3]): Active; Activity (Mus musculus [4]): inactive
CCCCC(F)(CO)C(=O)O[C@@H]1C[C@@H]2[C@H]3O[C@H]3[C@H](C1)N2C (some centres not stated) | inactive | inactive | –
CN1[C@@H]2C[C@@H](OC(=O)C(F)(CO)Cc3cccc4ccccc34)C[C@H]1[C@@H]1O[C@@H]12 (some centres not stated) | – | inactive | –
CN1[C@@H]2C[C@@H](OC(=O)C(F)(CO)Cc3ccccc3F)C[C@H]1[C@@H]1O[C@@H]12 (some centres not stated) | – | inactive | –
CN1[C@@H]2C[C@@H](OC(=O)C(F)(CO)c3ccc(F)cc3)C[C@H]1[C@@H]1O[C@@H]12 (some centres not stated) | – | inactive | –
CN1[C@@H]2C[C@@H](OC(=O)C(F)(CCl)Cc3ccccc3)C[C@H]1[C@@H]1O[C@@H]12 (some centres not stated) | inactive | inactive | –
CN1[C@@H]2C[C@@H](OC(=O)C(F)(CCl)c3ccccc3)C[C@H]1[C@@H]1O[C@@H]12 (some centres not stated) | inactive | inactive | –
CN1[C@@H]2C[C@@H](OC(=O)[C@H](CO)c3ccccc3)C[C@H]1[C@@H]1O[C@@H]12 [SCOPOLAMINE] | Active | inactive | Activity (Mus musculus [5]): Active; Activity [6]: Toxic; Activity (Mus musculus [7]): Active; Activity (Mus musculus [8]): inactive; Activity [9]: Toxic
CN1[C@@H]2C[C@@H](OC(=O)C(F)(CBr)Cc3ccccc3)C[C@H]1[C@@H]1O[C@@H]12 (some centres not stated) | inactive | inactive | –
CCCCC(F)(CCl)C(=O)O[C@@H]1C[C@@H]2[C@H]3O[C@H]3[C@H](C1)N2C (some centres not stated) | inactive | inactive | –
CN1[C@@H]2C[C@@H](OC(=O)C(F)(CI)c3ccccc3)C[C@H]1[C@@H]1O[C@@H]12 (some centres not stated) | inactive | inactive | –
CN1[C@@H]2C[C@@H](OC(=O)C(F)(CO)c3cccc(F)c3)C[C@H]1[C@@H]1O[C@@H]12 (some centres not stated) | Active | inactive | –
CN1[C@@H]2C[C@@H](OC(=O)C(F)(CO)Cc3ccccc3Br)C[C@H]1[C@@H]1O[C@@H]12 (some centres not stated) | – | inactive | –
CN1[C@@H]2C[C@@H](OC(=O)C(F)(CO)CCCc3ccccc3)C[C@H]1[C@@H]1O[C@@H]12 (some centres not stated) | inactive | inactive | –
CN1[C@@H]2C[C@@H](OC(=O)C(F)(CO)Cc3ccc(C(F)(F)F)cc3)C[C@H]1[C@@H]1O[C@@H]12 (some centres not stated) | – | inactive | –
CN1[C@@H]2C[C@@H](OC(=O)C(F)(CBr)c3ccccc3)C[C@H]1[C@@H]1O[C@@H]12 (some centres not stated) | inactive | inactive | –
CN1[C@@H]2C[C@@H](OC(=O)C(F)c3ccccc3)C[C@H]1[C@@H]1O[C@@H]12 (some centres not stated) | inactive | inactive | –
Cc1ccc(S(=O)(=O)OCC(F)(Cc2ccccc2)C(=O)O[C@@H]2C[C@@H]3[C@H]4O[C@H]4[C@H](C2)N3C)cc1 (some centres not stated) | inactive | inactive | –
C=CCC(F)(CCl)C(=O)O[C@@H]1C[C@@H]2[C@H]3O[C@H]3[C@H](C1)N2C (some centres not stated) | inactive | inactive | –
CN1[C@@H]2C[C@@H](OC(=O)C(F)(CO)Cc3ccccc3)C[C@H]1[C@@H]1O[C@@H]12 (some centres not stated) | Active | inactive | –
